Measured values as given in patent publication US20250108038A1 (priority 2023, published 2025).
“And” between values parts separate entries of the source, which are not always exact repeats. Identical values can stand only once.

Experiment: Pharmacokinetics after single oral administration to beagle dogs;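 as to AUC0-inf of Compound A (as titled): compound A is measured in plasma as a metabolite of the dosed analog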;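 as to AUC0-last of Compound A (as titled): compound A is measured in plasma as a metabolite of the dosed analog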;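 as to T1/2 of Compound A (as titled): compound A is measured in plasma as a metabolite of the dosed analog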;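 as to Tlast of Compound A (as titled): compound A is measured in plasma as a metabolite of the dosed analog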
Format: in vivo
Conditions: for plasma concentration of Compound I-17/I-19: single PO 10 mg/kg; for plasma concentration of Compound I-17/I-19 (as titled): single PO 80 mg/kg (as titled)
Method: The concentrations of the analytes in the plasma were quantified by liquid chromatography tandem mass spectrometry (LC-MS/MS).
The bioanalytical assay provided a lower limit of quantification (LLOQ) of 1.0 ng/mL and an upper limit of quantification (ULOQ) of 3000 ng/mL for all the analytes. The data of plasma concentration vs. time were analyzed using Phoenix WinNonlin 8.3 to determine the PK properties of the analytes.
The test articles were administered orally by gavage. The nominal dose volume was 5 mL/kg for both analogs.
The observation included appearance, behavior, morbidity and mortality.
Approximately 0.5 mL blood was collected at each scheduled time point from the peripheral veins.
The plasma samples were placed in microcentrifuge tubes and stored at −70+10° C. until analysis.

[1] = after single PO 10 mg/kg of Compound I-17/I-19, female individual
[2] = after single PO 10 mg/kg of Compound I-17/I-19, female individual, 10 mg/kg
[3] = after single PO 10 mg/kg of Compound I-17/I-19, female mean
[4] = after single PO 10 mg/kg of Compound I-17/I-19, male individual, 10 mg/kg
[5] = after single PO 10 mg/kg of Compound I-17/I-19, male mean
[6] = after single PO 80 mg/kg (so in the source) of Compound I-17/I-19, female individual, 80 mg/kg
[7] = after single PO 80 mg/kg (so in the source) of Compound I-17/I-19, female mean
[8] = after single PO 80 mg/kg (so in the source) of Compound I-17/I-19, female mean, 80 mg/kg
[9] = after single PO 80 mg/kg (so in the source) of Compound I-17/I-19, male individual
[10] = after single PO 80 mg/kg (so in the source) of Compound I-17/I-19, male individual, 80 mg/kg
[11] = after single PO 80 mg/kg (so in the source) of Compound I-17/I-19, male mean
[12] = oral 10 mg/kg, female dogs, 10 mg/kg

## CC(C)/C=C/COC1(c2ccc(Cl)cc2)c2ccccc2C2=NCCN21 (stereo not shown) [Compound I-17]
[1]
  T1/2 of Compound A (as titled): 5.87 h
  Tlast of Compound A (as titled): 24.0 h
[2]
  AUC0-inf of Compound A (as titled): 756 ng·h/mL and 946 ng·h/mL
  AUC0-last of Compound A (as titled): 736 ng·h/mL and 915 ng·h/mL
  Cmax of Compound A (as titled): 293 ng/mL and 252 ng/mL
  MRT0-inf of Compound A (as titled): 4.62 h and 5.07 h
  MRT0-last of Compound A (as titled): 3.88 h and 4.14 h
  T1/2 of Compound A (as titled): 6.33 h
  Tmax of Compound A (as titled): 1.00 h and 2.00 h
[3]
  AUC0-inf of Compound A (as titled): 851 ng·h/mL
  AUC0-last of Compound A (as titled): 826 ng·h/mL
  Cmax of Compound A (as titled): 272 ng/mL
  MRT0-inf of Compound A (as titled): 4.84 h
  MRT0-last of Compound A (as titled): 4.01 h
  T1/2 of Compound A (as titled): 6.10 h
  Tlast of Compound A (as titled): 24.0 h
  Tmax of Compound A (as titled): 1.50 h
After single PO 10 mg/kg of Compound I-17/I-19, male individual
  Tmax of Compound A (as titled): 1.00 h
[4]
  AUC0-inf of Compound A (as titled): 229 ng·h/mL and 522 ng·h/mL
  AUC0-last of Compound A (as titled): 209 ng·h/mL and 513 ng·h/mL
  Cmax of Compound A (as titled): 89.0 ng/mL and 212 ng/mL
  MRT0-inf of Compound A (as titled): 3.07 h and 3.86 h
  MRT0-last of Compound A (as titled): 2.15 h and 3.33 h
  T1/2 of Compound A (as titled): 3.08 h and 5.70 h
  Tlast of Compound A (as titled): 8.00 h and 24.0 h
[5]
  AUC0-inf of Compound A (as titled): 376 ng·h/mL
  AUC0-last of Compound A (as titled): 361 ng·h/mL
  Cmax of Compound A (as titled): 151 ng/mL
  MRT0-inf of Compound A (as titled): 3.46 h
  MRT0-last of Compound A (as titled): 2.74 h
  T1/2 of Compound A (as titled): 4.39 h
  Tlast of Compound A (as titled): 16.0 h
  Tmax of Compound A (as titled): 1.00 h
After single PO 80 mg/kg (so in the source) of Compound I-17/I-19, female individual
  T1/2 of Compound A: 24.0 h
[6]
  Cmax of Compound A: 4.00 ng/mL and 2.00 ng/mL
  MRT0-inf of Compound A: 0.989 h and 0.999 h
  MRT0-last of Compound A: 11.2 h and 11.5 h
  Tmax of Compound A: 7.07 h and 7.31 h
[7]
  MRT0-inf of Compound A: 0.994 h
  Tlast of Compound A: 323 h
[8]
  AUC0-last of Compound A: 323 ng·h/mL
  MRT0-last of Compound A: 11.3 h
[9]
  Tlast of Compound A: 24.0 h
  Tmax of Compound A: 2.00 h
[10]
  AUC0-inf of Compound A: 278 ng·h/mL and 298 ng·h/mL
  AUC0-last of Compound A: 258 ng·h/mL and 278 ng·h/mL
  Cmax of Compound A: 25.9 ng/mL and 31.6 ng/mL
  MRT0-inf of Compound A: 9.72 h and 9.19 h
  MRT0-last of Compound A: 7.90 h and 7.43 h
  T1/2 of Compound A: 6.33 h and 6.23 h
[11]
  AUC0-inf of Compound A: 288 ng·h/mL
  AUC0-last of Compound A: 268 ng·h/mL
  Cmax of Compound A: 28.8 ng/mL
  MRT0-inf of Compound A: 9.45 h
  MRT0-last of Compound A: 7.66 h
  T1/2 of Compound A: 6.28 h
  Tlast of Compound A: 24.0 h
  Tmax of Compound A: 2.00 h
Oral 10 mg/kg, female dogs
  Cmax of the analog (Compound I-17/I-19): 272 ng/mL
  T1/2 of the analog (Compound I-17/I-19): 6.10 hours
  Tmax of the analog (Compound I-17/I-19): 1.5 hour
[12]
  AUC0-last of the analog (Compound I-17/I-19): 826 ng·h/mL and 836 ng·h/mL
  MRT0-last of the analog (Compound I-17/I-19): 4.01 hours and 2.47 hours
Oral 10 mg/kg, male dogs
  Cmax of the analog (Compound I-17/I-19): 151 ng/mL
  T1/2 of the analog (Compound I-17/I-19): 4.39 hours
  Tmax of the analog (Compound I-17/I-19): 1 hour
Oral 10 mg/kg, male dogs, 10 mg/kg
  MRT0-last of the analog (Compound I-17/I-19): 2.74 hours and 2.30 hours
0.500 h, female individual, 10 mg/kg
  plasma concentration of Compound I-17/I-19: 128 ng/mL and 106 ng/mL
0.500 h, female mean
  plasma concentration of Compound I-17/I-19: 117 ng/mL
0.500 h, male individual, 10 mg/kg
  plasma concentration of Compound I-17/I-19: 73.5 ng/mL and 176 ng/mL
0.500 h, male mean
  plasma concentration of Compound I-17/I-19: 125 ng/mL
  plasma concentration of Compound I-17/I-19 (as titled): 10.6 ng/mL
1.00 h, female individual, 10 mg/kg
  plasma concentration of Compound I-17/I-19: 293 ng/mL and 236 ng/mL
1.00 h, female mean
  plasma concentration of Compound I-17/I-19: 265 ng/mL
1.00 h, male individual, 10 mg/kg
  plasma concentration of Compound I-17/I-19: 89.0 ng/mL and 212 ng/mL
1.00 h, male mean
  plasma concentration of Compound I-17/I-19: 151 ng/mL
2.00 h, female individual, 10 mg/kg
  plasma concentration of Compound I-17/I-19: 164 ng/mL and 252 ng/mL
2.00 h, female mean
  plasma concentration of Compound I-17/I-19: 208 ng/mL
  plasma concentration of Compound I-17/I-19 (as titled): 29.7 ng/mL
2.00 h, male individual, 10 mg/kg
  plasma concentration of Compound I-17/I-19: 51.0 ng/mL and 101 ng/mL
2.00 h, male mean
  plasma concentration of Compound I-17/I-19: 75.8 ng/mL
  plasma concentration of Compound I-17/I-19 (as titled): 28.8 ng/mL
4.00 h, female individual, 10 mg/kg
  plasma concentration of Compound I-17/I-19: 43.0 ng/mL and 77.4 ng/mL
4.00 h, female mean
  plasma concentration of Compound I-17/I-19: 60.2 ng/mL
  plasma concentration of Compound I-17/I-19 (as titled): 30.5 ng/mL
4.00 h, male individual, 10 mg/kg
  plasma concentration of Compound I-17/I-19: 11.2 ng/mL and 26.5 ng/mL
4.00 h, male mean
  plasma concentration of Compound I-17/I-19: 18.9 ng/mL
  plasma concentration of Compound I-17/I-19 (as titled): 27.3 ng/mL
6.00 h, female individual, 10 mg/kg
  plasma concentration of Compound I-17/I-19: 20.8 ng/mL and 28.2 ng/mL
6.00 h, female mean
  plasma concentration of Compound I-17/I-19: 24.5 ng/mL
  plasma concentration of Compound I-17/I-19 (as titled): 20.5 ng/mL
6.00 h, male individual, 10 mg/kg
  plasma concentration of Compound I-17/I-19: 6.77 ng/mL and 10.2 ng/mL
6.00 h, male mean
  plasma concentration of Compound I-17/I-19: 8.47 ng/mL
  plasma concentration of Compound I-17/I-19 (as titled): 15.4 ng/mL
8.00 h, female individual, 10 mg/kg
  plasma concentration of Compound I-17/I-19: 13.6 ng/mL and 15.0 ng/mL
8.00 h, female mean
  plasma concentration of Compound I-17/I-19: 14.3 ng/mL
  plasma concentration of Compound I-17/I-19 (as titled): 18.1 ng/mL
8.00 h, male individual, 10 mg/kg
  plasma concentration of Compound I-17/I-19: 4.57 ng/mL and 8.39 ng/mL
8.00 h, male mean
  plasma concentration of Compound I-17/I-19: 6.48 ng/mL
  plasma concentration of Compound I-17/I-19 (as titled): 14.3 ng/mL
24.0 h, female individual, 10 mg/kg
  plasma concentration of Compound I-17/I-19: 2.29 ng/mL and 3.32 ng/mL
24.0 h, female mean
  plasma concentration of Compound I-17/I-19: 2.81 ng/mL
  plasma concentration of Compound I-17/I-19 (as titled): 3.70 ng/mL
24.0 h, male individual
  plasma concentration of Compound I-17/I-19: 1.16 ng/mL
24.0 h, male individual, 10 mg/kg
  plasma concentration of Compound I-17/I-19: BQL
0.500 h, female individual
  plasma concentration of Compound I-17/I-19 (as titled): 5.44 ng/mL
0.500 h, female individual, 80 mg/kg
  plasma concentration of Compound I-17/I-19 (as titled): BQL
0.500 h, male individual, 80 mg/kg
  plasma concentration of Compound I-17/I-19 (as titled): 7.45 ng/mL and 13.8 ng/mL
2.00 h, female individual, 80 mg/kg
  plasma concentration of Compound I-17/I-19 (as titled): 33.0 ng/mL and 26.4 ng/mL
2.00 h, male individual, 80 mg/kg
  plasma concentration of Compound I-17/I-19 (as titled): 25.9 ng/mL and 31.6 ng/mL
4.00 h, female individual, 80 mg/kg
  plasma concentration of Compound I-17/I-19 (as titled): 35.5 ng/mL and 25.4 ng/mL
4.00 h, male individual, 80 mg/kg
  plasma concentration of Compound I-17/I-19 (as titled): 25.6 ng/mL and 29.0 ng/mL
6.00 h, female individual, 80 mg/kg
  plasma concentration of Compound I-17/I-19 (as titled): 22.9 ng/mL and 18.1 ng/mL
6.00 h, male individual, 80 mg/kg
  plasma concentration of Compound I-17/I-19 (as titled): 14.2 ng/mL and 16.7 ng/mL
8.00 h, female individual, 80 mg/kg
  plasma concentration of Compound I-17/I-19 (as titled): 21.8 ng/mL and 14.4 ng/mL
8.00 h, male individual, 80 mg/kg
  plasma concentration of Compound I-17/I-19 (as titled): 14.9 ng/mL and 13.7 ng/mL
24.0 h, female individual, 80 mg/kg
  plasma concentration of Compound I-17/I-19 (as titled): 4.17 ng/mL and 3.23 ng/mL
24.0 h, male individual, 80 mg/kg
  plasma concentration of Compound I-17/I-19 (as titled): 2.20 ng/mL and 2.28 ng/mL
24.0 h, male mean
  plasma concentration of Compound I-17/I-19 (as titled): 2.24 ng/mL
[…] h, female mean
  plasma concentration of Compound I-17/I-19 (as titled): 15.9 ng/mL
[…] h, male mean
  plasma concentration of Compound I-17/I-19 (as titled): 22.2 ng/mL
